The source of these data is article PMC9633730, “Endowing homodimeric carbamoyltransferase GdmN with iterative functions through structural characterization and mechanistic studies” (Nature Communications, 2022).

One assay has as its target T1, GdmN (Streptomyces hygroscopicus, UniProt Q84G19, V24Y/G157A/R158A/G188R).
T1 construct: homodimer; Kae1-like M1-L351, YrdC-like G368-A571, dimerization domain D574-L674; one iron ion per monomer
As to the kind of experiment: X-ray co-crystal structure. The format is binding. The note with it: reaction intermediate formed from ATP, MgCl2 and carbamoyl phosphate; carbamoyl group rotated.

In assay [1] the target is GdmN (Streptomyces hygroscopicus XM201). The assay can be described thus: SEC; Superdex 200 Increase 10/300 GL, buffer C (10 mM Tris, 150 mM NaCl, pH 8.0), calibrated with Bio-Rad gel filtration standards; monomer to dimer.

T1 sequence (Q84G19 entry or part of it V24Y/G157A/R158A/G188R): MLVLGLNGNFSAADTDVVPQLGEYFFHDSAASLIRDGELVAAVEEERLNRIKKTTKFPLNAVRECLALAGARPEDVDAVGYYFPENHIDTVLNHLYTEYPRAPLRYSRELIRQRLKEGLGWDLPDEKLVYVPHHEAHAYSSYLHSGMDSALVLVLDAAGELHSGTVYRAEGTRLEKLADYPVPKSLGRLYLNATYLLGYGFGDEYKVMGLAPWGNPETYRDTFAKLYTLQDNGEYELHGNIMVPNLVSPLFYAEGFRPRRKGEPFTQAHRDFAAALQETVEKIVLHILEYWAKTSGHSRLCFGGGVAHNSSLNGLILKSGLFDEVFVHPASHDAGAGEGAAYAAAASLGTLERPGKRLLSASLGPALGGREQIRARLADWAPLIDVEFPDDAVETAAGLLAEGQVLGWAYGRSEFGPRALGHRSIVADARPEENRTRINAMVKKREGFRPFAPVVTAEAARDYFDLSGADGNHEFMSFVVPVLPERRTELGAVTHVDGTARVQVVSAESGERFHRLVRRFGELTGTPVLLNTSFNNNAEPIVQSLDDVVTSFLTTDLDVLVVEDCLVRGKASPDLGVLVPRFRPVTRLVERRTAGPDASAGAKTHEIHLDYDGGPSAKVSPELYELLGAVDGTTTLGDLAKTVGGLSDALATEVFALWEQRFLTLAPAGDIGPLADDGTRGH

`NC(=O)OP(=O)(O)OC[C@H]1O[C@@H](n2cnc3c(N)ncnc32)[C@H](O)[C@@H]1O` [carbamoyl-AMP]: the X-ray co-crystal structure entry at GdmN is on record as “complex of GdmN V24Y/G157A/R158A/G188R mutant with carbamoyl-AMP (PDB: 7VZQ)”.
The compound GdmN (enzyme) gave a stoichiometry N in assay [1] of 2.
